Measured values published in patent publication US20120022143A1, “RNA Interference Mediated Inhibition of the Thymic Stromal Lymphopoietin (TSLP) Gene Expression Using Short Interfering Nucliec Acid (siNA)” (Merck Sharp & Dohme Corp, priority 2009, published 2012).
[invAb] = inverted abasic unit; d = 2'-deoxy (DNA); m = 2'-O-methyl; r = 2'-OH (RNA); f = 2'-fluoro

Columns and labels:
TSLP mRNA = assay: Initial screening: TSLP mRNA knock-down by RT-PCR (Taqman) after RNAiMax transfection of NHLF cells; type: cell-based; conditions: 10 nM siNA, human NHLF cells, 24 hrs post-transfection, relative to non-targeting control, normalized to GAPDH; mean ± s.d. from 2 experiments
Description: (§1) All cells were obtained from ATCC (Manassas, Va.) unless otherwise indicated. Cells were grown and transfected under standard conditions, which are detailed below for each cell line.
NHLF (human; Lonza cat# CC-2512): Cells were cultured at 37° C. in the presence of 5% CO2 and grown Fibroblast Basal Medium (Lonza cat# CC-3β2) supplemented growth factors (provided with the kit) and 100 μg/mL of streptomycin and 100 U/mL penicillin.
(§2) All transfections were performed using RNAiMax (Invitrogen Cat# 13778-150) as per the manufacturer's instructions.
(§3) Both human and murine cell lines were transfected in the similar fashion. Cells were plated in all wells of a tissue-culture treated, 96-well plate at a final count of 5,000 cells/well in […], of appropriate culture media. Cells were cultured for 24 hours after plating at 37° C. in the presence of 5% CO2.
(§4) After 24 hours, complexes containing siNA and RNAiMax were created as follows: A solution of RNAiMax diluted 33-fold in OPTI-MEM was prepared. In parallel, solutions of the siNAs for testing were prepared to a final concentration of 120 nM in OPTI-MEM. After incubation of RNAiMax/OPTI-MEM solution at room temperature for 5 min, an equal volume of the siNA solution and the RNAiMax solution were added together for each of the siNAs.
(§5) This solution was incubated at room temperature for 20 minutes. After incubation, 20 uL of the solution was added to each of the relevant wells.
(§6) The final concentration of siNA in each well was 10 nM and the final volume of RNAiMax in each well was 0.3 ul.
(§7) The time of incubation with the RNAiMax-siNA complexes was 24 hours, unless otherwise indicated. There was no change in media between the transfection and harvesting of the cells unless otherwise indicated.
(§8) RNA was extracted from a 96-well plate using the TaqMan® Gene Expression Cells-to-CT™ Kit (Cat# 4399002) with a modified protocol. Briefly, a 60 uL (1 plate) or 110 uL (2 plates) of the Lysis Solution with DNase I was dispensed into each well of the Lysis Buffer Plate (twin.tec full skirt plate). The lysis buffer and stop plates were stored at 4° C. until the cells were washed.
(§9) The plate was spun at 1100 rpm for 5 minutes. The culture medium was aspirated and discarded from the wells of the culture plate. The lysis was performed automatically using a BioMek FX instrument and method. After the Biomek method was completed, the lysis plate was incubated for 2 min. at room temperature. The lysis plate can be stored for 2 hours at 4° C., or at −20° C. or −80° C. for two months.
(§10) Each well of the reverse transcription plate required 10 uL of 2× reverse transcriptase Buffer, luL of 20× reverse transcription enzyme and 2 uL of nuclease-free water. The reverse transcription master mix was prepared by mixing 2× reverse transcription buffer, 20× reverse transcription enzyme mix, and nuclease-free water. 13 uL of the reverse transcription master mix was dispensed into each well of the reverse transcription plate (semi-skirted). A separate reverse transcription plate was prepared for each cell plate. The plate was loaded onto a Biomek NX or Biomek FX Dual-96 and the Biomek method was run. The program is programmed to automatically added 7 uL of lysate from the cell lysis procedure described above into each well of the reverse transcription plate. The plate is sealed and spun on a centrifuge (1000 rpm for 30 seconds) to settle the contents to the bottom of the reverse transcription plate. The plate is placed in a thermocycler at 37° C. for 60 min, 95° C. for 5 min, and 4° C. until the plate is removed from the thermocycler. Upon removal, if not used immediately, the plate was frozen at −20° C.
A series of probes and primers were used to detect the various mRNA transcripts of the genes of TSLP, IL-8 and GAPDH in human cell lines. All the Taqman probes and primers for the experiments here-in described were supplied as pre-validated sets by Applied Biosystems, Inc. (see Table 2). […]

mTSLP mRNA = assay: Initial screening: mouse TSLP mRNA knock-down by RT-PCR (Taqman) after RNAiMax transfection of NIH 3T3 cells; type: cell-based; conditions: 10 nM siNA, 24 hrs post-transfection, mean ± s.d., summary from 2 screens
Description: as §1
NIH 3T3 (murine; ATCC cat#CRL-1658): Cells were cultured at 37° C. in the presence of 5% CO2 and grown in Dulbecco's modified Eagle's medium (DMEM) with 4 mM L-glutamine adjusted to contain 1.5 g/L sodium bicarbonate and 4.5 g/L glucose and supplemented with fetal bovine serum at a final concentration of 10% and 100 μg/mL of streptomycin and 100 U/mL penicillin.
as §2, §3, §4, §5, §6, §7, §8, §9, §10
A series of probes and primers were used to detect the various mRNA transcripts of the genes of TSLP, IL-8 and GAPDH in human cell lines. […]

| Substance | % KD TSLP (TSLP mRNA) | % KD mTSLP NIH3T3 (mTSLP mRNA) |
| --- | --- | --- |
| 25467-DC: siNA duplex: sense B cAAGAGccuuGcAcAucuA TTB (SEQ ID NO: 117), antisense UAGAuGuGcAAGGcucuuGUU (SEQ ID NO: 118) (sense CAAGAGCCUUGCACAUCUATT; antisense UAGAUGUGCAAGGCUCUUGUU; sense: DNA at AGT, 2'-fluoro at CU, [invAb] at 5' end, 3' end, backbone not given here; antisense: sugars from the 5' end rrrmfmfmfmmmmfffffmmm, backbone not given here) | −13 ± 31.7% | −31 ± 7.4% |
| 25430-DC: siNA duplex: sense B cccuGAAAAAGGAAAAAuA TTB (SEQ ID NO: 43), antisense UAUuuuuccuuuuucAGGGUU (SEQ ID NO: 44) (sense CCCUGAAAAAGGAAAAAUATT; antisense UAUUUUUCCUUUUUCAGGGUU; inverted abasic caps, TT overhang, chemistry not fully specified) | 89 ± 4.5% | 30.4 ± 9.9% |
| 25469-DC: siNA duplex: sense B AAAuGGGAAAuGAGcAAuA TTB (SEQ ID NO: 121), antisense UAUuGcucAuuucccAuuuUU (SEQ ID NO: 122) (sense AAAUGGGAAAUGAGCAAUATT; antisense UAUUGCUCAUUUCCCAUUUUU; sense: DNA at AGT, 2'-fluoro at CU, [invAb] at 5' end, 3' end, backbone not given here; antisense: sugars from the 5' end rrrfmfffmffffffmfffmm, backbone not given here) | −1 ± 18.8% | −17.2 ± 17.9% |
| 25437-DC: siNA duplex: sense B cAGGGAGAcuccAAcuuAA TTB (SEQ ID NO: 57), antisense UUAAGuuGGAGucucccuGUU (SEQ ID NO: 58) (sense CAGGGAGACUCCAACUUAATT; antisense UUAAGUUGGAGUCUCCCUGUU; sense: sugars from the 5' end frddddddffffddfffdddd, [invAb] at 5' end, 3' end, backbone not given here; antisense: sugars from the 5' end rrrmmffmmmmfffffffmmm, backbone not given here) | −51 ± 36.2% | 33.8 ± 4.2% |
| 25442-DC: siNA duplex: sense B GGcAAGAGAuuGcAucAuA TTB (SEQ ID NO: 67), antisense UAUGAuGcAAucucuuGccUU (SEQ ID NO: 68) (sense GGCAAGAGAUUGCAUCAUATT; antisense UAUGAUGCAAUCUCUUGCCUU; sense: DNA at AGT, 2'-fluoro at CU, [invAb] at 5' end, 3' end, backbone not given here; antisense: sugars from the 5' end rrrmmfmfmmffffffmffmm, backbone not given here) | 12 ± 27^ % | −70.9 ± 6.4% |
| 25433-DC: siNA duplex: sense B cGcucGccAAAGAAAuGuu TTB (SEQ ID NO: 49), antisense AACAuuucuuuGGcGAGcGUU (SEQ ID NO: 50) (sense CGCUCGCCAAAGAAAUGUUTT; antisense AACAUUUCUUUGGCGAGCGUU; sense: DNA at AGT, 2'-fluoro at CU, [invAb] at 5' end, 3' end, backbone not given here; antisense: sugars from the 5' end rrrmfffffffmmfmmmfmmm, backbone not given here) | 36 ± 25^ % | 7.5 ± 3.3% |
| 25458-DC: siNA duplex: sense B GuAGAAAAAAAAAuuAAAA TTB (SEQ ID NO: 99), antisense UUUuAAuuuuuuuuucuAcUU (SEQ ID NO: 100) (sense GUAGAAAAAAAAAUUAAAATT; antisense UUUUAAUUUUUUUUUCUACUU; sense: sugars from the 5' end d1 f1 d11 f2 d6, [invAb] at 5' end, 3' end, backbone not given here; antisense: sugars from the 5' end rrrfmmfffffffffffmfmm, backbone not given here) | 45 ± 9.9% | 21.6 ± 0.5% |
| 25447-DC: siNA duplex: sense B uuuGuGAAcAcuuuuGAAA TTB (SEQ ID NO: 77), antisense UUUcAAAAGuGuucAcAAAUU (SEQ ID NO: 78) (sense UUUGUGAACACUUUUGAAATT; antisense UUUCAAAAGUGUUCACAAAUU; sense: DNA at AGT, 2'-fluoro at CU, [invAb] at 5' end, 3' end, backbone not given here; antisense: sugars from the 5' end rrrfmmmmmfmfffmfmmmmm, backbone not given here) | 84 ± 4.6% | 18.5 ± 3.8% |
| 25456-DC: siNA duplex: sense B uccuGAAAAucGAGuAuuA TTB (SEQ ID NO: 95), antisense UAAuAcucGAuuuucAGGAUU (SEQ ID NO: 96) (sense UCCUGAAAAUCGAGUAUUATT; antisense UAAUACUCGAUUUUCAGGAUU; sense: DNA at AGT, 2'-fluoro at CU, [invAb] at 5' end, 3' end, backbone not given here; antisense: sugars from the 5' end rrrfmfffmmfffffmmmmmm, backbone not given here) | 23 ± 1.1% | 53.3 ± 0.3% |
| 25452-DC: siNA duplex: sense B uuGuGAAcAcuuuuGAAAA TTB (SEQ ID NO: 87), antisense UUUucAAAAGuGuucAcAAUU (SEQ ID NO: 88) (sense UUGUGAACACUUUUGAAAATT; antisense UUUUCAAAAGUGUUCACAAUU; sense: DNA at AGT, 2'-fluoro at CU, [invAb] at 5' end, 3' end, backbone not given here; antisense: sugars from the 5' end rrrffmmmmmfmfffmfmmmm, backbone not given here) | 86 ± 3% | 36.4 ± 7.9% |
| 25453-DC: siNA duplex: sense B AuuAcAGAAGAGuuucuuA TTB (SEQ ID NO: 89), antisense UAAGAAAcucuucuGuAAuUU (SEQ ID NO: 90) (sense AUUACAGAAGAGUUUCUUATT; antisense UAAGAAACUCUUCUGUAAUUU; sense: DNA at AGT, 2'-fluoro at CU, [invAb] at 5' end, 3' end, backbone not given here; antisense: sugars from the 5' end rrrmmmmfffffffmfmmfmm, backbone not given here) | 81 ± 10.5% | −8.6 ± 12.2% |
| 25441-DC: siNA duplex: sense B GGucAGuuAuGucAAuGuu TTB (SEQ ID NO: 65), antisense AACAuuGAcAuAAcuGAccUU (SEQ ID NO: 66) (sense GGUCAGUUAUGUCAAUGUUTT; antisense AACAUUGACAUAACUGACCUU; sense: DNA at AGT, 2'-fluoro at CU, [invAb] at 5' end, 3' end, backbone not given here; antisense: sugars from the 5' end rrrmffmmfmfmmffmmffmm, backbone not given here) | 40 ± 16.2% | −13.4 ± 10^ % |
